Experimental data from patent publication US20080194678A1, “Process To Obtain Synthetic And Semi-Synthetic Lignan Derivatives, Their Antiparasitic Activities And Corresponding Pharmaceutical Formulations, Including The Therapeutic Method Using Said Lignan For The Treatment Of Parasitosis” (Fundacao de Amparo a Pesquissa do Estado de Aao Pa, priority 2005, published 2008).
Entries after “also recorded” stand apart in the source; their conditions may differ. Where two headings read alike, the source gives them in different places.

Assays:
[1] = tested on: S. mansoni; assay: Couples of S. mansoni recovered from infected BALB/c mice by perfusion after treatment; format: in vivo, Schistosoma mansoni; conditions: for number of S. mansoni recovered / couples of S. mansoni recovered in the treated group / efficacy: BALB/c mice; for number of S. mansoni recovered / efficacy: single dose 10 mg/kg after 40 days of infection; for couples of S. mansoni recovered in the treated group: single dose 10 mg/kg after 40 days of infection (approx. 200 cercariae), untreated group 40 couples/animal; for reduction of the viable worms: 10 mg/kg of weight, after 40 days of infection with S. mansoni
Protocol: FIG. 8—graph with the number of recovered worms vs. effect of the drug. Couples of S. mansoni recovered from BALB/c mice by perfusion of the door-kidney system. Five mice, after 40 days of infection (approximately 200 cercariae), were submitted to test with a single dose of the drug dinitrocubebine (10 mg/kg of weight). In the group untreated (negative control treated only with a 5% dimethyl sulfoxide solution in water), 40 couples/animal were recovered. In the treated group, only 5 couples were recovered. […] FIG. 9—graph with the number of recovered worms vs. effect of the drug. Couples of S. mansoni recovered from BALB/c mice by perfusion of the door-kidney system. Five mice, after 40 days of infection (approximately 200 cercariae), were submitted to test with a single dose of the drug methylcubebin (10 mg/kg of weight). In the untreated group (negative control treated only with a 5% dimethyl sulfoxide solution in water), 40 couples/animal were recovered. In the treated group, only five couples were recovered. […] In in vivo tests, the drugs (−)—O-methylcubebin (6) and (−)-6,6′-dinitronokinin (8) presented results similar to the obtained with praziquantel, in the same concentration (10 mg/kg of weight), i.e. reduction of approximately 90% of the viable worms, after 40 days of infection with S. mansoni. […] Such a result was extremely important and promising, since the drug was given to the parasites when they were still maturing and had not yet reached the evolutive form of adult worms. […] Thus, the developed medicine may be used not only as a healing drug, but also as a prophylactic drug in the combat against schistosomosis. Another advantage relates to the low toxicity of these substances for use in antiparasitic therapeutics, since many of these derivatives have hepatic-protecting and antioxidant action. Thus, the use of these lignans certainly offers higher safety for therapeutic use than praziquantel. So, the use of these substances in medicines for longer treatments is safer than with praziquantel and they have nearly no significant side effects. Finally, this group of substances is obtained from natural sources, which is not applicable to praziquantel.

[2] = tested on: Schistosoma; assay: Schistosomicidal activity (test not specified)
[3] = tested on: Schistosoma mansoni (evolutive stage of adult worm); assay: In vitro culture of Schistosoma mansoni adult worm couples (motility, separation, egglaying, tegument, death); format: cell-based; conditions: for time to considerable increase in the motility of parasite couples / time to separation of parasite couples: 14.0 and 7.0 μg/ml; for change in tegument or death of parasites: worms analyzed for 5 days
Protocol: FIG. 1—effect of the drugs (−)-hinokinin (3) and (−)-O—(N,N-dimethylamino-ethyl) cubebin (4), in concentrations of 14, 7.5 and 3.5 μg/ml, under the parasite Schistosoma mansoni's egglaying during 5 days of culture.
FIG. 2—effect of the drug (−)-6,6-dinitroinokinin (8), in concentrations of 14, 7.5 and 3.5 μg/ml, under the parasite Schistosoma mansoni's egglaying during 5 days of culture.
FIG. 3—effect of the drug (−)—O-methylcubebin (5), in concentrations of 14, 7.5 and 3.5 μg/ml, under the parasite Schistosoma mansoni's egglaying during 5 days of culture
FIG. 4—parasite Schistosoma mansoni (evolutive stage of adult worm) cultivated in vitro in RPMI 1640 medium, in 5% CO2 atmosphere at 37° C. for 24 hours, in the absence and presence of the drug (−)-6,6-dinitroinokinin (8). A and C, male and female parasites, respectively, cultivated in the absence of substances. B and D, male and female parasite, respectively, cultivated in the presence of the Drug (the same effect was noticed in concentrations of 14.0, 7.0 and 3.0 μg/ml) Inverted light microscope, 4× magnification.
Two hours after the addition of substances 3 and 5 in concentrations of 14.0 and 7.0 μg/ml, considerable increase in the motility of parasite couples was noticed, ending up with their separation after 18 hours.

[4] = tested on: S. mansoni; assay: Couples of S. mansoni recovered from infected BALB/c mice by perfusion after treatment; format: in vivo, Schistosoma mansoni; conditions: after 7 and 21 days of infection
[5] = tested on: Schistosoma mansoni (evolutive stage of adult worm); assay: In vitro culture of Schistosoma mansoni adult worm couples (motility, separation, egglaying, tegument, death); format: cell-based; conditions: 14.0, 7.0 and 3.5 μg/ml
[6] = tested on: Schistosoma; conditions: cited from earlier work
[7] = 3.5 μg/ml, after 24 hours of culture

Compound: O=[N+]([O-])c1cc2c(cc1CC1COC(O)C1Cc1cc3c(cc1[N+](=O)[O-])OCO3)OCO2 (single isomer, unassigned; (-)) [8a, (−)-6,6′-dinitrocubebin]
- number of S. mansoni recovered [1]: about 10%
- couples of S. mansoni recovered in the treated group [1]: 5 couples
- schistosomicidal activity [2]: significant schistosomicidal activity

Compound: CC(=O)OC1OC[C@H](Cc2ccc3c(c2)OCO3)[C@H]1Cc1ccc2c(c1)OCO2 (single isomer, unassigned; (-)) [compound 4, (−)-O-acetylcubebin]
- schistosomicidal activity [2]: significant schistosomicidal activity

Compound: CN(C)CCOC1OCC(Cc2ccc3c(c2)OCO3)C1Cc1ccc2c(c1)OCO2 (single isomer, unassigned; (-)) [compound 5, (−)-O—(N,N-dimethylaminoethyl)-cubebin]
- schistosomicidal activity [2]: significant schistosomicidal activity
- time to increase in the motility of couples ([3]; 3.5 μg/ml): 24 h
- time to separation of the couples ([3]; 3.5 μg/ml): 36 h
- effect on egglaying [3, 7]: considerable reduction of egglaying
- time to considerable increase in the motility of parasite couples [3]: Two
- time to separation of parasite couples [3]: 18 h
- change in tegument or death of parasites ([3]; 14.0, 7.0 and 3.5 μg/ml): no apparent change in tegument or death of parasites

Compound: COC1OC[C@@H](Cc2ccc3c(c2)OCO3)[C@@H]1Cc1ccc2c(c1)OCO2 (single isomer, unassigned; (-)) [compound 6, (−)-O-methylcubebin]
- reduction of the viable worms ([4]; two doses 10 mg/kg of weight): approximately 90%
- action on intermediary forms of the parasite (schistosomulus) in the vertebrate host ([4]; two doses 10 mg/kg): also acts on the intermediary forms of the parasite (schistosomulus)
- reduction of the viable worms [1]: approximately 90%
- efficacy [1]: around 93%
- number of S. mansoni recovered [1]: about 10%
- couples of S. mansoni recovered in the treated group [1]: five
- schistosomicidal activity [2]: significant schistosomicidal activity
- increase in motility of couples ([3]; 14, 7.5 and 3.5 μg/ml): increased the motility of couples after the first hour of culture
- time to separation of the parasites ([3]; 14, 7.5 and 3.5 μg/ml): ≤ 12 h
- tegument (cutaneous) lesions in male and female parasites [5]: did not produce cutaneous lesions

Compound: c1ccc(COC2OC[C@@H](Cc3ccc4c(c3)OCO4)[C@@H]2Cc2ccc3c(c2)OCO3)cc1 (single isomer, unassigned; (-)) [compound 7, (−)-O-benzylcubebin]
- schistosomicidal activity [2]: significant schistosomicidal activity

Compound: Nc1cc2c(cc1CC1COC(=O)C1Cc1cc3c(cc1N)OCO3)OCO2 (single isomer, unassigned; (-)) [compound 9, (−)-6,6′-diaminonokinin]
- schistosomicidal activity [2]: significant schistosomicidal activity

Compound: COc1ccc([C@H]2O[C@@H](c3ccc(OC)c(OC)c3)[C@H](C)[C@@H]2C)cc1OC [14b, galgravin]
- schistosomicidal activity [2]: significant schistosomicidal activity

Compound: COc1cc([C@H]2O[C@@H](c3ccc(OC)c(OC)c3)[C@H](C)[C@@H]2C)ccc1O [14c, nectandrin A]
- schistosomicidal activity [2]: significant schistosomicidal activity

Compound: COc1cc([C@H]2O[C@@H](c3ccc(O)c(OC)c3)[C@H](C)[C@@H]2C)ccc1O [14d, nectandrin B]
- schistosomicidal activity [2]: significant schistosomicidal activity

Compound: COc1ccc([C@H]2O[C@@H](c3ccc(OC)c(OC)c3)[C@H](C)[C@H]2C)cc1OC [15b, veragensin]
- schistosomicidal activity [2]: significant schistosomicidal activity

Compound: COc1ccc([C@H]2O[C@H](c3ccc(OC)c(OC)c3)[C@@H](C)[C@H]2C)cc1OC [16a, ganschisandrin]
- schistosomicidal activity [2]: significant schistosomicidal activity

Compound: CC(C)NCC1CCc2cc(CO)c([N+](=O)[O-])cc2N1 (stereo not shown) [Oxamniquin, oxamniquin]
- cases in which the drug is effective ([6]; adults): about 80%
- cases in which the drug is effective ([6]; children): ~65%
- side effects ([6]; patients): cephalgia, sleepiness, nausea, tremors and rarely convulsions

Compound: COc1ccc(C[C@H]2C(=O)OC[C@@H]2Cc2ccc3c(c2)OCO3)cc1OC [compound 1, (−)-methylpluviatolide]
- schistosomicidal activity [2]: significant schistosomicidal activity

Compound: O[C@H]1OC[C@H](Cc2ccc3c(c2)OCO3)[C@H]1Cc1ccc2c(c1)OCO2 [compound 2, (−)-cubebin]
- schistosomicidal activity [2]: significant schistosomicidal activity

Compound: O=C1OC[C@H](Cc2ccc3c(c2)OCO3)[C@H]1Cc1ccc2c(c1)OCO2 [compound 3, (−)-hinokinin]
- schistosomicidal activity [2]: significant schistosomicidal activity
- time to increase in the motility of couples ([3]; 3.5 μg/ml): 24 h
- time to separation of the couples ([3]; 3.5 μg/ml): 36 h
- effect on egglaying [3, 7]: considerable reduction of egglaying
- time to considerable increase in the motility of parasite couples [3]: Two
- time to separation of parasite couples [3]: 18 h
- change in tegument or death of parasites ([3]; 14.0, 7.0 and 3.5 μg/ml): no apparent change in tegument or death of parasites

Compound: O=C1OC[C@H](Cc2cc3c(cc2[N+](=O)[O-])OCO3)[C@H]1Cc1cc2c(cc1[N+](=O)[O-])OCO2 [compound 8, (−)-6,6′-dinitroinokinin]
- reduction of the viable worms [1]: approximately 90%
- efficacy [1]: around 90%
- schistosomicidal activity [2]: significant schistosomicidal activity
- time to death of parasites ([3]; 3.5 μg/ml): 36 h
- time to death of parasites ([3]; 7.0 μg/ml): 24 h
- time to death of parasites ([3]; 14.0 μg/ml): 20 h
- death of the parasites ([3]; 14.0, 7.0 and 3.5 μg/ml): causing their death
- increase in motility of couples ([3]; 14, 7.5 and 3.5 μg/ml): considerable increase in motility in the first hour of culture
- time to separation of the parasites ([3]; 14, 7.5 and 3.5 μg/ml): 12 h
- effect on egglaying ([3]; 14, 7.5 and 3.5 μg/ml, after separation): interruption in egglaying
- tegument (cutaneous) lesions in male and female parasites [5]: strong tegument lesions in both male and female parasites; also recorded: very evident tegument lesions

Compound: COc1cc(OC)c([C@H]2[C@H](C)[C@@H](c3cc(OC)c(OC)cc3OC)O[C@H]2C)cc1OC [compound 17, magnosalicin]
- schistosomicidal activity [2]: significant schistosomicidal activity

Compound: aristolignine [15c]
- schistosomicidal activity [2]: significant schistosomicidal activity

Compound: caloptin [15a]
- schistosomicidal activity [2]: significant schistosomicidal activity

Compound: machilin [14a]
- schistosomicidal activity [2]: significant schistosomicidal activity

Compound: morelensine [1a]
- schistosomicidal activity [2]: significant schistosomicidal activity

Compound: nectandrin D [16b]
- schistosomicidal activity [2]: significant schistosomicidal activity

Compound: nectandrin E [16c]
- schistosomicidal activity [2]: significant schistosomicidal activity
